Here are results for 5 compounds from US20230116399A1, “Tumor Homing Statin Derivatives” (Da Zen Theranostics, Inc., priority 2019, published 2023).

Data set [1] deals with L858R/T790M vs wild-type EGFR. Particulars: inhibiting phosphorylation of EGFR; cited from earlier work.
Another data set deals with EZ-resistant C4-2B (PC). Briefly: MTT cell viability, EZ-resistant C4-2B (MDVR). The class given is cell-based. Particulars: Homo sapiens, 48 h / 24 hours, relative IC50. The protocol:
(§1) Cell culture: In the following examples, unless otherwise specified, all cell lines are purchased from American Type Culture Collection and cultured in American Type Culture Collection (ATCC)-recommended media, with fetal bovine serum (FBS) to a final concentration of 10% and 1×penicillin/streptomycin at 37° C. with 5% CO2 in a cell culture incubator, unless otherwise specified. Unless otherwise specified, culture is 2D. Where culture is 3D, low attachment plates are used, with the same media. C4-2B (parental cell line and drug-resistant cells derived therefrom) are cultured in RPMI-1640 with 10% FBS. MDVR cells (an Enzalutamide-resistant variety of C4-2B prostate cancer cells formed as described in Example 4 below) are cultured as indicated for the parental C4-2B cells. 22RV1 Prostate Cancer (PC) cells (ATCC® CRL-2505™, a human prostate carcinoma cell line of epithelial morphology) are cultured in RPMI-1640 with 10% FBS. A549 cells (ATCC® CCL-185™, a human lung carcinoma cell line of epithelial morphology) are cultured in F-12K medium with 10% FBS. A549/DDP cells (Cells were described in DOI: 10.3892/mmr.2014.2163 and in doi: 10.7150/jca.19426; cisplatin resistant cells may be established from exposing parental A549 cells to cisplatin for an extended time). MDR A549/cisplatin lung adenocarcinoma cell line, drug resistant) are cultured in F-12K medium with 10% FBS. […]

Data set [2] is described as follows: Stability of conjugates in mouse blood serum at 37° C. for 3 hours (LC-MS/MS). The class given is in vitro ADME. Particulars: for amount of conjugate at 3 h (value at time 0 is 100) / degradation/release of the statin from the conjugate: mouse blood serum, 37° C., 3 h; for stability when exposed to serum: serum at body temperature for at least 3 hours. As for the experimental part:
Comparative example 1A-V: Synthesis of DZ1-SIM rapid release ester (RRE) and comparison of stability to an ELSD (here: DZ1-SIM). A rapid release ester (RRE) is synthesized as described below, linking DZ1 to Simvastatin (DZ1-SIM RRE or “DZ2c”, compound 8) and is tested in comparison to the ELSD (here: DZ1-SIM or “DZ2b”, compound 14, synthesized as described above). Both compounds are incubated in mouse blood serum at 37° C. for 3 hours, after which samples are taken and tested for degradation of the conjugates by testing for the unconjugated statin as described in example 6 herein-below (LC-MS/MS-025 with positive ion, ESI, MRM detection and HPLC). […] The value at time 0 for each of the samples is 100.

The subject of the next data set is H446 (LC). Nature of the data set: MTT cell viability, H446. The class given is cell-based, human. Particulars: Homo sapiens, NCI-H446, 48 h / 24 hours, relative IC50. The protocol:
(§2) Cell culture: In the following examples, unless otherwise specified, all cell lines are purchased from American Type Culture Collection and cultured in American Type Culture Collection (ATCC)-recommended media, with fetal bovine serum (FBS) to a final concentration of 10% and 1×penicillin/streptomycin at 37° C. with 5% CO2 in a cell culture incubator, unless otherwise specified. Unless otherwise specified, culture is 2D. Where culture is 3D, low attachment plates are used, with the same media. C4-2B (parental cell line and drug-resistant cells derived therefrom) are cultured in RPMI-1640 with 10% FBS. MDVR cells (an Enzalutamide-resistant variety of C4-2B prostate cancer cells formed as described in Example 4 below) are cultured as indicated for the parental C4-2B cells. 22RV1 Prostate Cancer (PC) cells (ATCC® CRL-2505™, a human prostate carcinoma cell line of epithelial morphology) are cultured in RPMI-1640 with 10% FBS. A549 cells (ATCC® CCL-185™, a human lung carcinoma cell line of epithelial morphology) are cultured in F-12K medium with 10% FBS. A549/DDP cells (Cells were described in DOI: 10.3892/mmr.2014.2163 and in doi: 10.7150/jca.19426; cisplatin resistant cells may be established from exposing parental A549 cells to cisplatin for an extended time). MDR A549/cisplatin lung adenocarcinoma cell line, drug resistant) are cultured in F-12K medium with 10% FBS. H1975 cells (ATCC® CRL-5908™, a human adenocarcinoma non-small cell lung cancer cell line of epithelial morphology) are cultured in RPMI-1640 medium with 10% FBS; H1975 cells are a cell model for human lung cancer that is resistant to Gefitinib (an EGFR inhibitor drug used for treatment of certain breast, lung and other cancers). H1650 cells (ATCC® CRL-5883™, a adenocarcinoma/bronchoalveolar carcinoma lung cancer cell line of epithelial morphology) are cultured in RPMI-1640 medium with 10% FBS. […]

In another data set the test system is A549DDP (LC). Nature of the data set: MTT cell viability, A549DDP. It is filed as cell-based, human. Particulars: Homo sapiens, A549/DDP, 48 h / 24 hours, relative IC50. As for the experimental part:
as §2
(§3) […] For each cell line, the IC50 is determined for each drug, i.e. the ELSD, the ALSD, and for the corresponding unconjugated statin (Simvastatin), in concentrations from 0.1-100 μM. […]

For a further data set, the system named is human cancer cell lines. Nature of the data set: MTT cell viability, summary over the cancer cell lines. The class given is cell-based. Particulars: summary of the table of IC50, read-out: range of IC50 over the cancer cell lines. The protocol: Example 7: The experiment is performed by cell assay essentially as described above in example 4. […]
The cell lines are cultured according to the protocols as described above, then each of the cell lines are treated for 48 h either with an ELSD (here of formula FId, “DZ2b” or compound 14) or with an ALSD (here of formula FIId, “DZ2a” or compound 7). For each cell line, the IC50 is determined for each drug, i.e. the ELSD, the ALSD, and for the corresponding unconjugated statin (Simvastatin), in concentrations from 0.1-100 μM.
In the controls (not shown in the figures), the cells are exposed to DMSO (vehicle) for a final concentration that equals the highest concentration of the drug tested, to a maximum concentration less than 0.1% v/v. […] The absorbance density of the supernatant is read on a 96-well microplate reader at wavelength 595 nm.

The subject of a further data set is 22RV1 (PC). Briefly: MTT cell viability, 22RV1. The class given is cell-based, human. As for the experimental part:
as §2, §3

In the next data set the test system is PC9 (LC). Nature of the data set: MTT cell viability, PC9. It is filed as cell-based, human. Particulars: Homo sapiens, 48 h / 24 hours, relative IC50. The protocol:
as §2

Another data set relates to H1650 (LC). Nature of the data set: MTT cell viability, H1650. It is filed as cell-based, human. Particulars: Homo sapiens, NCI-H1650, 48 h / 24 hours, relative IC50. The protocol: as §2
For the next data set, the system named is H1975 (LC). Nature of the data set: MTT cell viability, H1975. The class given is cell-based, human. Particulars: Homo sapiens, NCI-H1975, 48 h / 24 hours, relative IC50. As for the experimental part:
as §2

The next data set relates to A549 (LC). Nature of the data set: MTT cell viability, A549. Particulars: Homo sapiens, 48 h / 24 hours, relative IC50. The class given is cell-based, human. As for the experimental part: as §2
Another data set relates to PC3 (PC). Nature of the data set: MTT cell viability, PC3. It is filed as cell-based. Particulars: Homo sapiens, 48 h / 24 hours, relative IC50. The protocol:
as §1

The subject of data set [3] is 22Rv1 human prostate carcinoma tumors. Briefly: Tumor volume of 22Rv1 tumors grown subcutaneously in mice. It is filed as in vivo. Particulars: 8 mg/kg, intravenously injected. As for the experimental part:
Example 1D: 22Rv1 human prostate carcinoma cells are cultured as described above, separated from the medium, resuspended in 50% phosphate buffered saline (PBS) and 50% BD Matrigel™ (BD Biosciences, CA), and then the re-suspended cells are injected and grown subcutaneously in mice. […] The decrease of the THSD in the tumors at 2 and 4 weeks, respectively, as determined by NIR signal, is less than about 30%.
Example 1E: 22Rv1 human prostate carcinoma cells are cultured, injected and grown subcutaneously in mice as described above in example 1D. Tumor volume is monitored by measuring the size by caliper and calculating volume as described in example 9 below. The mice are intravenously injected with the following: ALSD of formula FIId, “DZ2a”, compound 7, the corresponding unconjugated dye (here: DZ1), unconjugated Simvastatin, a statin drug (SIM), and docetaxel (DOC), a cancer drug, and a mixture of the ALSD with DOC. Each active was administered in an amount of 5 mg/kg for the ALSD, DZ1, and SIM, except, in case of DOC, 8 mg/kg. A slower rate of increased tumor volume indicates tumor suppressive activity.

The subject of data set [4] is RhoA/B in H-1975 human lung cancer tumors. Nature of the data set: RhoA/B membrane staining of tumor tissue, H-1975 mouse model. It is filed as in vivo, mice. Particulars: 20 mg/kg. As for the experimental part: RhoA/RhoB membrane staining of tumor tissue of a H-1975 human lung cancer cell mouse model is performed as described below, and the tumor-bearing mice are treated with a THSD (here an ALSD of formula FIId, “DZ2a”, compound 7) in comparison to the corresponding unconjugated dye (“DZ1”) and to Gefinitib (an EGFR inhibitor drug used for treatment of certain breast, lung and other cancers).
H-1975 cells, a cell model for human lung cancer that is resistant to Gefitinib (an EGFR inhibitor drug used for treatment of certain breast, lung and other cancers) are cultured as described above and injected subcutaneously into mice to develop tumors. The mice and the tumors that are formed are systemically exposed to an ALSD (here of formula FIId, “DZ2a”, compound 7) by intravenous injection. The tumor-bearing mice are treated with either Gefitinib (20 mg/kg), or with an ALSD (here of formula FIId, “DZ2a”, compound 7, 5 mg/kg), an unconjugated dye of formula III (“DZ1”, 5 mg/kg) or a combination of the ALSD with Gefitinib.
For immunostaining of tumor tissue, the animals are sacrificed by prescribed and approved euthanasia techniques. Tumor tissue (maximum thickness 3 mm) is sliced, formalin fixated, embedded into paraffin blocks which are sectioned and processed into paraffin section slides. […]

Turning to `C=CC(=O)Nc1cc(Nc2nccc(-c3cn(C)c4ccccc34)n2)c(OC)cc1N(C)CCN(C)C` [AZD9291, Osimertinib], the “greater potency against L858R/T790M than wild-type EGFR” value in data set [1] was 100-200 times.
Regarding `CCC(C)(C)C(=O)O[C@H]1C[C@@H](C)C=C2C=C[C@H](C)[C@H](CC[C@@H](O)C[C@@H](O)CC(=O)OCCNC(=O)CCCCCN3/C(=C/C=C4\CCCC(/C=C/C5=[N+](CCCCS(=O)(=O)O)c6ccccc6C5(C)C)=C4Cl)C(C)(C)c4ccccc43)[C@H]21` [DZ2b], the half-maximal inhibitory concentration (IC50) with EZ-resistant C4-2B (PC) was 3.8 µM; in the data set with H446 (LC), 3.4 µM; with A549DDP (LC), 2.1 µM; in the data set with human cancer cell lines it was 2 to 12 µM; in the data set with 22RV1 (PC) (22RV1, treated for 48 h /, relative IC50, listed as ELSD), 7.8 µM; in the data set on 22RV1 (PC) (Homo sapiens, 22Rv1, 22RV1, treated for 48 h /, relative IC50), 10.8 µM. Also, the IC50 with PC9 (LC) came to 5.6 µM; in the data set on H1650 (LC), 11.8 µM; in the data set with H1975 (LC), 6.4 µM; in the data set on A549 (LC) it was 5.4 µM; in the data set on PC3 (PC), 6 µM. Also, the “amount of conjugate at 3 h (value at time 0 is 100)” value in data set [2] is given as 100. Besides, in data set [2], the “degradation/release of the statin from the conjugate” value is “no degradation/release”. Moreover, in [2], the “stability when exposed to serum” value is “stable and not subject to degradation”.
`CCC(C)(C)C(=O)O[C@H]1C[C@@H](C)C=C2C=C[C@H](C)[C@H](CC[C@@H]3C[C@@H](OC(=O)CCCCCN4/C(=C/C=C5\CCCC(/C=C/C6=[N+](CCCCS(=O)(=O)[O-])c7ccccc7C6(C)C)=C5Cl)C(C)(C)c5ccccc54)CC(=O)O3)[C@H]21` [DZ2c]: in data set [2], the “amount of conjugate at 3 h (value at time 0 is 100)” value was found to be 10; the “degradation/release of the statin from the conjugate” value is recorded as 90%; the “stability when exposed to serum” value is “less stable and more easily degrades”.
In the case of `CC(=O)O[C@@]12CO[C@@H]1C[C@H](O)[C@@]1(C)C(=O)[C@H](O)C3=C(C)[C@@H](OC(=O)[C@H](O)[C@@H](NC(=O)OC(C)(C)C)c4ccccc4)C[C@@](O)([C@@H](OC(=O)c4ccccc4)[C@H]21)C3(C)C` [Docetaxel], the entries for the “tumor suppressive activity (tumor volume increase)” value in data set [3] and in data set [3] (listed as DOC) were “no or very mild tumor suppressive activity” and “no significant tumor suppressive activity”, respectively.
With `COc1cc2ncnc(Nc3ccc(F)c(Cl)c3)c2cc1OCCCN1CCOCC1` [Gefitinib], the “RhoA/B staining of tumor cell membranes” value in [4] was “staining persists in the membranes”.
